Test results reported in ChEMBL document CHEMBL1148115, “Malevamide D: isolation and structure determination of an isodolastatin H analogue from the marine cyanobacterium Symploca hydnoides” (J Nat Prod, 2002).

Tests used:
Format in all cases: functional, cell-based
[1] = test system: P388; assay: Cytotoxicity against mouse P388 cells
[2] = test system: A549; assay: Cytotoxicity against human A549 cells
[3] = test system: HT-29; assay: Cytotoxicity against human HT-29 cells
[4] = test system: SK-MEL-28; assay: Cytotoxicity against human SK-MEL-28 cells

CC[C@H](C)[C@@H](C(=O)N[C@H](C(=O)N(C)[C@@H](C(C)C)[C@@H](CC(=O)N1CCC[C@H]1[C@H](OC)[C@@H](C)C(=O)O[C@H](CO)Cc1ccccc1)OC)C(C)C)N(C)C [MALEVAMIDE D]
IC50 [1]: 0.3 nM | IC50 [2]: 0.3 nM | IC50 [3]: 0.3 nM | IC50 [4]: 0.7 nM
